Experimental data as given in patent US10336746B1, “RAD51 inhibitors” (Cyteir Therapeutics, Inc., priority 2017, dated 2019).
Like-named read-outs stand apart in the source and are kept apart here.

Tests used:
[1] = Bi-directional Caco-2 permeability; type: in vitro ADME; details: human; for efflux ratio at 90 min: Caco-2, read-out: BA/AB Ratio; for Papp A→B at 90 min: Caco-2, apical to basolateral, read-out: AB Papp (cm/sec × 10^6); for Papp A→B at 90 min / Papp B→A at 90 min: 37 C, up to 90 minutes; for Papp B→A at 90 min: Caco-2, basolateral to apical, read-out: BA Papp (cm/sec × 10^6)
Description: Bi-directional Caco-2 permeability was assayed. Caco-2 cells were seeded onto permeable polycarbonate supports and allowed to differentiate for about 3 weeks prior to being used in the assays. The cells were then exposed to the compounds from either the apical or basolateral sides and incubated at 37 C for up to 90 minutes under light agitation. Compound transport was then measured using LC/MS/MS analysis at 30, 60, and 90 minutes.

[2] = system: Daudi cell line (AID positive); test: Primary screening cell killing assay, Daudi cell line (AID positive); type: cell-based; details: Homo sapiens, 168 h, cell death on Day 7, Cell-Titer Glo
Description: (§1) Primary screening was a phenotypic screen that utilized the synthetic lethal interaction between AID and RAD51 to identify compounds that were both potent and on target. AID expressing cells are dependent upon RAD51 for survival; inhibiting RAD51 in AID positive cells results in a cytotoxic effect.
The first step was to set up a cell killing assay in the Daudi cell line (AID positive). A 96 well u-bottom plate was prepared by writing the experiment number, plate number, date and initials in the top right corner of the plate lid. With a sterile 300 ml reservoir, and 25 ml serological pipette, evaporation buffer media was pipetted into reservoir in 25 ml increments. Using the liquid handler, 150 ul of evaporation buffer media was pipetted from reservoir into rows A and H, and Columns 1 and 12 of the 96 well u-bottom plate. Cell cultures were counted to obtain the density of cells per ml, and the culture viability. The cell density information was used to obtain 1,000,000 cells from culture using a 5 mL serological pipette into an epi tube. The cell density information from the culture was used to calculate the number of cells and volume of media needed for the assay to seed 1250 cells in 130 ul of media per available culture well in the 96 well u-bottom plate. Rows B through F were used for cells (50 wells in total), with row G left for an empty media control. The calculation was overestimated by 10 mL to account for the dead volume in the 300 ml reservoir. Once the media volume was calculated, the appropriate volume of media was pipetted in 25 mL increments into the 250 mL bottle using a 25 mL serological pipette. The 250 ml bottle was capped tightly, and placed into a 37° C. water bath for 2 minutes. While the culture media was warming, 10 mL of fresh media was pipetted from the 500 mL culture media bottle into a sterile 25 mL reservoir. Using the Eppendorf multichannel pipette, 130 ul of media was pipetted from the 25 mL reservoir into row G of the 96 well u-bottom plate. Once the 250 mL bottle of media was warmed, the volume of culture needed was pipetted into the bottle, and mixed gently with a 25 mL serological pipette as to not create bubbles, and then the contents of the bottle were pipetted into a new 300 mL reservoir. Using the liquid handler, 130 ul of culture was pipetted from the 300 mL reservoir into rows B through F of the 96 well u-bottom plate. Once the culture was added, the plate was placed into a 37° C. incubator until the compound master plate was prepared for use.
Two 96 well u-bottom plates were prepared by writing the master plate name in the upper right corner of the plate lid. Labeling one DMSO master and the other Media Master. The compounds of interest were obtained from the laboratory freezer, and placed into a 25 well storage box with a lid, and set the box aside. The compounds were vortexed after thawing but before use. Using an automatic multichannel pipette, 20 ul of 100% DMSO was pipetted into wells B3-B11 through G3-G11 of the DMSO master plate. For each compound on the master plate, 50 ul of the compound were pipetted in the appropriate well of row 2 (reference plate map to determine appropriate well). A serial dilution was prepared beginning by aspirating 20 ul from row 2 and mixing with row 3, repeating until row 11 was reached. Using the liquid handler, 194 ul of Daudi media was dispensed into wells B2-B11 through G2-G11 of the Media master plate. Using the liquid handler, 6 ul from the DMSO master plate was aspirated and dispensed into the media master plate, mixing 100 ul twice.
Compounds from master plate were then added to the culture plate. The culture plates were removed from the incubator, and set inside the biosafety cabinet. Using a liquid handler, 20 ul from wells B2 to B11 through G2 to G11 of master plate were aspirated, and dispensed into wells B2 to B11 through G2 to G11 of culture plate. This set was continued with each culture plate. […]

[3] = system: WI-38 cells (AID negative); test: Primary screening cell killing assay repeated in WI-38 cells (AID negative); type: cell-based; details: Homo sapiens, 168 h, cell death on Day 7, Cell-Titer Glo
Description: as §1
Percent cell death and EC50 values were calculated by comparing the cell viability of the compound treated wells to the non-treated wells. Normalized RLU values were obtained by subtracting the media well values from each of the wells in the same column, and then dividing that value by the DMSO treated cells values. The percent kill was then calculated by subtracting the normalized RLU value from 1 and multiplying by 100. The average normalized percent kill value and standard error of the mean was then calculated. The kill values were then inputted into Prism with the corresponding standard errors. In Prism a non-linear regression line was plotted with the data points using a semi-log scale, and the EC50 value was calculated.

[4] = Caco-2, Caco-2, AB direction, read-out: AB Recovery %
[5] = Caco-2, Caco-2, BA direction, read-out: BA Recovery %

| recovery at 90 min [1, 4] | recovery at 90 min [1, 5] | efflux ratio at 90 min [1] | Papp A→B at 90 min [1] | Papp B→A at 90 min [1] | SMILES | EC50 [2] | EC50 [3] |
| --- | --- | --- | --- | --- | --- | --- | --- |
| 98.2% | 96.8% | 104 | 0.4 ×10⁻⁶ cm/s | 45.2 ×10⁻⁶ cm/s | CC(C)OC(=O)N[C@H]1CC[C@H](c2ncc(-c3ccc(NC(=O)OC[C@H]4CCCN4C)cc3S(=O)(=O)NC(C)(C)C)s2)CC1 [Ex. 34, isopropyl ((1R,4r)-4-(5-(2-(N-(tert-butyl)sulfamoyl)-4-(((((R)-1-methylpyrrolidin-2-yl)methoxy)carbonyl)amino)phenyl)thiazol-2-yl)cyclohexyl)carbamate] | 100 to 1000 nM |  |
|  |  |  |  |  | CC(C)OC(=O)NC1CCC(c2ncc(-c3ccc(NC(=O)O[C@@H](C)c4ccccc4)cc3S(=O)(=O)NC(C)(C)C)s2)CC1 (stereo partly drawn) [Ex. 41, (S)-1-phenylethyl (3-(N-(tert-butyl)sulfamoyl)-4-(2-((1r,4S)-4-((isopropoxycarbonyl)amino)cyclohexyl)thiazol-5-yl)phenyl)carbamate] | ≤ 100 nM | > 1000 nM |
|  |  |  |  |  | CC(C)NC(=O)OC12CCC(c3ncc(-c4ccc(NC(=O)NCc5ccccn5)cc4S(=O)(=O)NC(C)(C)C)s3)(CC1)CC2 [Ex. 62, 4-(5-(2-(N-(tert-butyl)sulfamoyl)-4-(3-(pyridin-2-ylmethyl)ureido)phenyl)thiazol-2-yl)bicyclo[2.2.2]octan-1-yl isopropylcarbamate] | > 1000 nM | > 1000 nM |
|  |  |  |  |  | CC(C)NC(=O)OC1CCN(c2ncc(-c3ccc(NC(=O)NCc4ccccc4)cc3S(=O)(=O)NC(C)(C)C)s2)CC1 [Ex. 3, [1-[5-[4-(benzylcarbamoylamino)-2-(tert-butylsulfamoyl)phenyl]thiazol-2-yl]-4-piperidyl] N-isopropylcarbamate] | ≤ 100 nM | > 1000 nM |
|  |  |  |  |  | CC(C)OC(=O)N[C@H]1CC[C@H](c2ncc(-c3ccc(NC(=O)N[C@H](C)c4ccccc4)cc3S(=O)(=O)NC(C)(C)C)s2)CC1 [Ex. 24] | ≤ 100 nM | > 1000 nM |
|  |  |  |  |  | C[C@@H](NC(=O)Nc1ccc(-c2cnc(C3CCC(NC(=O)OC4COC4)CC3)s2)c(S(=O)(=O)NC(C)(C)C)c1)c1ccccc1F (stereo partly drawn) [Ex. 54, oxetan-3-yl ((1R,4r)-4-(5-(2-(N-(tert-butyl)sulfamoyl)-4-(3-((R)-1-(2-fluorophenyl)ethyl)ureido)phenyl)thiazol-2-yl)cyclohexyl)carbamate] | ≤ 100 nM | > 1000 nM |
|  |  |  |  |  | CC(C)(C)NS(=O)(=O)c1cc(NC(=O)OC2COC2)ccc1-c1cnc([C@H]2CC[C@H](NC(=O)OC3COC3)CC2)s1 [Ex. 49, trans-oxetan-3-yl N-[3-(tert-butylsulfamoyl)-4-[2-[4-(oxetan-3-yloxycarbonylamino)cyclohexyl]thiazol-5-yl]phenyl]carbamate] | 100 to 1000 nM | > 1000 nM |
| 58.6% | 78.3% | 3 | 3.6 ×10⁻⁶ cm/s | 10.7 ×10⁻⁶ cm/s | CC(C)NC(=O)O[C@H]1CC[C@H](c2ncc(-c3ccc(NC(=O)NCc4ccccc4)cc3S(=O)(=O)NC(C)(C)C)s2)CC1 [Ex. 21, (1r,4r)-4-(5-(4-(3-benzylureido)-2-(N-(tert-butyl)sulfamoyl)phenyl)thiazol-2-yl)cyclohexyl isopropylcarbamate] | ≤ 100 nM |  |
| 83.6% | 90% | 2.5 | 10.5 ×10⁻⁶ cm/s | 26.7 ×10⁻⁶ cm/s | CC(C)OC(=O)Nc1ccc(-c2cnc([C@@H]3CC[C@@H](NC(=O)OC(C)C)CN3)s2)c(S(=O)(=O)NC(C)(C)C)c1 (relative stereo) [Ex. 63, trans-isopropyl N-[6-[5-[2-(tert-butylsulfamoyl)-4-(isopropoxycarbonylamino)phenyl]thiazol-2-yl]-3-piperidyl]carbamate] | 100 to 1000 nM |  |
| 34.7% | 80.8% | 0.4 | 5.9 ×10⁻⁶ cm/s | 2.2 ×10⁻⁶ cm/s | CC(C)OC(=O)Nc1ccc(-c2cnc(N3CCN(C(=O)OC(C)C)CC3)s2)c(S(=O)(=O)NC(C)(C)C)c1 [Ex. 5, isopropyl 4-[5-[2-(tert-butylsulfamoyl)-4-(isopropoxycarbonylamino)phenyl]thiazol-2-yl]piperazine-1-carboxylate] | > 1000 nM |  |
| 73.6% | 84.4% | 1.4 | 7.6 ×10⁻⁶ cm/s | 10.8 ×10⁻⁶ cm/s | CC(C)(C)NS(=O)(=O)c1cc(NC(=O)NCc2ccccn2)ccc1-c1cnc(C2CCC(NC(=O)OC(C)(C)C)CC2)s1 (stereo not drawn) [Ex. 45, tert-butyl ((1r,4r)-4-(5-(2-(N-(tert-butyl)sulfamoyl)-4-(3-(pyridin-2-ylmethyl)ureido)phenyl)thiazol-2-yl)cyclohexyl)carbamate] | ≤ 100 nM |  |
| 98.8% | 108% | 99.1 | 0.4 ×10⁻⁶ cm/s | 41 ×10⁻⁶ cm/s | CC(C)OC(=O)N[C@H]1CC[C@H](c2ncc(-c3ccc(NC(=O)OC[C@@H]4CCCN4C)cc3S(=O)(=O)NC(C)(C)C)s2)CC1 [Ex. 35, isopropyl ((1S,4r)-4-(5-(2-(N-(tert-butyl)sulfamoyl)-4-(((((S)-1-methylpyrrolidin-2-yl)methoxy)carbonyl)amino)phenyl)thiazol-2-yl)cyclohexyl)carbamate] | 100 to 1000 nM |  |
| 44.8% | 96.6% | 1.1 | 9.4 ×10⁻⁶ cm/s | 10.4 ×10⁻⁶ cm/s | CC(C)NC(=O)O[C@H]1CC[C@H](c2ncc(-c3ccc(NC(=O)OC(C)C)cc3S(=O)(=O)NC(C)(C)C)s2)CC1 [Ex. 20, trans-isopropyl N-[3-(tert-butylsulfamoyl)-4-[2-[4-(isopropylcarbamoyloxy)cyclohexyl]thiazol-5-yl]phenyl]carbamate] | > 1000 nM |  |

| SMILES | recovery at 90 min [1, 4] | recovery at 90 min [1, 5] | efflux ratio at 90 min [1] | Papp A→B at 90 min [1] | Papp B→A at 90 min [1] | EC50 [2] | EC50 [3] |
| --- | --- | --- | --- | --- | --- | --- | --- |
| CC(C)OC(=O)Nc1ccc(-c2cnc([C@H]3CC[C@H](NC(=O)OC(C)(C)C)CC3)s2)c(S(=O)(=O)NC(C)(C)C)c1 [Ex. 44, trans-isopropyl N-[4-[2-[4-(tert-butoxycarbonylamino)cyclohexyl]thiazol-5-yl]-3-(tert-butylsulfamoyl)phenyl]carbamate] | 36.2% | 69.4% | 1.3 | 3.2 ×10⁻⁶ cm/s | 4.2 ×10⁻⁶ cm/s | > 1000 nM |  |
| CC(C)OC(=O)Nc1ccc(-c2cnc([C@H]3CC[C@H](NC(=O)OC4CCCC4)CC3)s2)c(S(=O)(=O)NC(C)(C)C)c1 [Ex. 7, trans-isopropyl N-[3-(tert-butylsulfamoyl)-4-[2-[4-(cyclopentoxycarbonylamino)cyclohexyl]thiazol-5-yl]phenyl]carbamate] | 55.9% | 92% | 1.2 | 1.7 ×10⁻⁶ cm/s | 2.1 ×10⁻⁶ cm/s | 100 to 1000 nM |  |
